Experiment [1] relates to indomethacin-induced gastric mucosal lesions. As to the kind of experiment: Preventive effect on in vivo indomethacin-induced gastric injury. Also noted: species or system Sprague-Dawley male rats. The following applies: rats, 10 mg/kg via oro-gastric tube prior to indomethacin 40 mg/kg for 12 hrs, FIG. 3A. An excerpt: (§1) Six-week old specific-pathogen-free (SPF) Sprague-Dawley male rats (Charles River, Tokyo, Japan) were used for experiments. The rats were fed a sterilized commercial pellet diet (Biogenomics Co., Seoul, Korea), given sterile water ad libitum, and housed in air-conditioned biohazard room with a 12-h light:12-h dark cycle. The rats were divided into four groups; indomethacin-only treatment group, revaprazan-indomethacin treatment group, ethanol-only treatment group and revaprazan-ethanol treatment group. The rats were food-deprived 24 hours, and then administered with 10 mg/kg revaprazan suspended in 0.5% CMC (carboxymethylcellulose) via oro-gastric tube prior to exposure to either indomethacin (40 mg/kg for 12 hrs) or absolute ethanol (6 ml/kg for 1 hr). The stomachs of the rats belonging to the groups treated with indomethacin were excised and the degree of gastric mucosal lesions was observed (see FIG. 3A). Referring to FIG. 3A, in the indomethacin-only treatment group, increased hemorrhagic lesions in gastric mucosa were observed visually. […] Also, the stomachs of the rats belonging to the ethanol treatment groups were excised and the degree of gastric mucosal lesions was observed (see FIG. 3B).

The subject of experiment [2] is ethanol-induced gastric mucosal lesions. As to the kind of experiment: Preventive effect on in vivo ethanol-induced gastric injury. On the set-up: species or system Sprague-Dawley male rats. The following applies: rats, 10 mg/kg via oro-gastric tube prior to absolute ethanol 6 ml/kg for 1 hr, FIG. 3B.
Description: as §1

Experiment [3] deals with heat-shock proteins, HO-1, HSP27, HSP70. The experiment in a line: Expression of heat-shock proteins in indomethacin-treated cells (Western blotting). The experiment is classed as cell-based, rat. The following applies: RGM-1 cells, 5, 10 and 25 uM for 16 hours, then indomethacin 0.5 uM 16 hours, FIG. 7. The method, then:
To measure expression of heat-shock proteins, HO-1, HSP27, HSP70, cells were pretreated with concentrations of 5, 10, and 25 μM revaprazan, and then treated with indomethacin (a NSAID, 0.5 μM).
The rat gastric mucosal (RGM-1, RIKEN cell bank, Japan) cells were seeded in culture dishes at 2×10^6 cells/100 mm^2 and cultured in DMEM-F12 (Gibco BRL, Grand Island, N.Y., U.S.A.), supplemented with 100 units/mL penicillin, 100 ug/mL streptomycin, and 10% FBS (Fetal Bovine Serum). RGM-1 cells were pretreated with revaprazan (5, 10, and 25 uM) and cultured 37° C. for 16 hours. The culture media were removed and the cells were washed three times with PBS (137 mM NaCl, 2.7 mM KCl, 10 mM Na2HPO4, and 2 mM KH2PO4). A solution of indomethacin in sterilized water was added to the cells to reach a final concentration of 0.5 uM, and the cells were incubated at 37° C. for 16 hours. After incubation, the cells were resuspended in a lysis buffer (20 mM Tris-Cl (pH 7.5), 150 mM NaCl, 1% Triton X-100, 1 mM EDTA, and protease inhibitor cocktail (Roche, Mannheim, Germany)). The suspension was sonicated for approximately 10 seconds, four times using the BIORUPTOR (Cosmo Bio, Koto-ku, Tokyo), and centrifuged at 4° C., 12000 rpm for 30 minutes. […]
(In general: A western blot detects proteins with antibodies after separation by electrophoresis.)

Experiment [4] concerns VEGF (Vascular Endothelial Growth Factor). The experiment in a line: Expression level of VEGF in sulindac-treated cells (RT-PCR). The experiment is classed as cell-based, rat. The following applies: RGM-1 cells, revaprazan 25 uM (rebamipide 50 uM) 16 hours, then sulindac 100 uM 8 hours, FIG. 6. The method, then:
In order to evaluate cytoprotective effect of revaprazan, 100 μM of sulindac belonging to NSAIDs was added to the rat cells, and the expression levels of pro-angiogenic growth factors, VEGF (Vascular Endothelial Growth Factor), interleukin-8 (IL-8), and COX-2 (cyclooxygenase-2) were measured. Rebamipide (50 μM), known to have cytoprotective properties, was used as a control drug and revaprazan (25 μM) was used as a test drug. The rat gastric mucosal (RGM-1, RIKEN cell bank, Japan) cells were seeded in culture dishes at 2×10^6 cells/100 mm^2 and cultured in RPMI 1640 (Gibco BRL, Grand Island, N.Y., U.S.A.), supplemented with 100 units/mL penicillin, 100 ug/mL streptomycin, and 10% FBS (Fetal Bovine Serum). […] The culture media were removed and the cells were washed three times with PBS (137 mM NaCl, 2.7 mM KCl, 10 mM Na2HPO4, and 2 mM KH2PO4). A solution of sulindac in DMSO was added to the cells to reach a final concentration of 100 uM and the cells were cultured at 37° C. for 8 hours. The cultured cells were collected by centrifugation at 23° C. at 3000 rpm for 3 minutes, and the total RNA was isolated from the cells using the TRIzol reagent (Life technologies, Milan, Italy). Sterilized RNase-free water was added to 2 μg of the total RNA and 1 μl of 10 pmol/λ oligo dT to obtain reaction solutions with a volume of 34 μl. […]

For `Cc1nc(Nc2ccc(F)cc2)nc(N2CCc3ccccc3C2C)c1C` (stereo not shown) [revaprazan, 5,6-dimethyl-2-(4-fluorophenylamino)-4-(1-methyl-1,2,3,4-tetrahydroisoquinolin-2-yl)pyrimidine], the indomethacin-induced gastric injury result in experiment [1] is recorded as “completely inhibited”. Also, the ethanol-induced gastric injury result in experiment [2] was “completely inhibited”. Moreover, the “expression of heat-shock proteins” value in experiment [3] is “stimulating expression”. Besides, the “expression level of VEGF versus rebamipide-sulindac treatment group” value in experiment [4] is recorded as “much higher”.

For the origin of these results see patent US7776873B2, “Method for treating damage to gastric mucosa” (Yuhan Corporation, priority 2005, dated 2010).
